Experimental data as given in patent publication US12065442B2, “Tropomyosin receptor kinase (TRK) degradation compounds and methods of use” (Cullgen (Shanghai), Inc., priority 2018, dated 2024).
Entries after “also recorded” stand apart in the source; their conditions may differ. Like-named read-outs stand apart in the source and are kept apart here.

How the values were obtained:
TPM3-TRKA fusion protein [1] = target: T1, TPM3-TRKA fusion protein (Homo sapiens, UniProt P04629+P06753+Q96SW2); assay: Immunoblotting of TPM3-TRKA in KM12 subcutaneous xenograft tumors; assay type: in vivo, Athymic nude mice; design: The resulted chimeric proteins always retain the kinase domain of TRK proteins; TPM3 (N-terminal fusion partner, natural gene fusion); from tissue; host or cells: KM12 subcutaneous xenograft tumors in athymic nude mice; conditions: for TPM3-TRKA degradation in KM12 subcutaneous tumors: intraperitoneal or oral administration, eight hours after administration (FIG. 10)
T1 sequence (P06753+P04629 fused): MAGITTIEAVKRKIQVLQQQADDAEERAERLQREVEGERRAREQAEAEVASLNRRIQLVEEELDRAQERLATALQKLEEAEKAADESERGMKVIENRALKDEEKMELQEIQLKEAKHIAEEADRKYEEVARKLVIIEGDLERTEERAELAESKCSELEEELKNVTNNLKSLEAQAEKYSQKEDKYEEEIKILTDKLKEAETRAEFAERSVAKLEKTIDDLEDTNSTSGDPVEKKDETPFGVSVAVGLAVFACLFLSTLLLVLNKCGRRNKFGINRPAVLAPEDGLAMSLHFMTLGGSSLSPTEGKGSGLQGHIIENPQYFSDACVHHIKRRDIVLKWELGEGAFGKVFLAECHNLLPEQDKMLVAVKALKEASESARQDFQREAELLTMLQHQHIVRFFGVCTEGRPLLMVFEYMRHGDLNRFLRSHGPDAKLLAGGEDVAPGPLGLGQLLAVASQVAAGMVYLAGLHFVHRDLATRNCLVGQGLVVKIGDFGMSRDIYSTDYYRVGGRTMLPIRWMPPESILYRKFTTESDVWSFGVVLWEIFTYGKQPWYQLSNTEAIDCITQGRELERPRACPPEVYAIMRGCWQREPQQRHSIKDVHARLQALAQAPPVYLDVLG
T1 sequence (Q96SW2 whole entry, the tested form may be a part): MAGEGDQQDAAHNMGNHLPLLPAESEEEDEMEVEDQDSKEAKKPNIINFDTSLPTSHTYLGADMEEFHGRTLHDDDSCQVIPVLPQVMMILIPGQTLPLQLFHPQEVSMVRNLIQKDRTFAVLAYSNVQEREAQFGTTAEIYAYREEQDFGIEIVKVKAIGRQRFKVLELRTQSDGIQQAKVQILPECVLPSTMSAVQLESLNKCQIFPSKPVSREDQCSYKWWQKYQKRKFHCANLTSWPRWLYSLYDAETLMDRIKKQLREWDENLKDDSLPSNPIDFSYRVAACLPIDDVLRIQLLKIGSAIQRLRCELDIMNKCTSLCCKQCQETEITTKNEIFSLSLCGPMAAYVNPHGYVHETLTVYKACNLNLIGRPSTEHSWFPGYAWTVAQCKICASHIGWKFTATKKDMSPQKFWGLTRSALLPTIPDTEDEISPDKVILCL
T1 sequence (Q16531 whole entry partner, the tested form may be a part): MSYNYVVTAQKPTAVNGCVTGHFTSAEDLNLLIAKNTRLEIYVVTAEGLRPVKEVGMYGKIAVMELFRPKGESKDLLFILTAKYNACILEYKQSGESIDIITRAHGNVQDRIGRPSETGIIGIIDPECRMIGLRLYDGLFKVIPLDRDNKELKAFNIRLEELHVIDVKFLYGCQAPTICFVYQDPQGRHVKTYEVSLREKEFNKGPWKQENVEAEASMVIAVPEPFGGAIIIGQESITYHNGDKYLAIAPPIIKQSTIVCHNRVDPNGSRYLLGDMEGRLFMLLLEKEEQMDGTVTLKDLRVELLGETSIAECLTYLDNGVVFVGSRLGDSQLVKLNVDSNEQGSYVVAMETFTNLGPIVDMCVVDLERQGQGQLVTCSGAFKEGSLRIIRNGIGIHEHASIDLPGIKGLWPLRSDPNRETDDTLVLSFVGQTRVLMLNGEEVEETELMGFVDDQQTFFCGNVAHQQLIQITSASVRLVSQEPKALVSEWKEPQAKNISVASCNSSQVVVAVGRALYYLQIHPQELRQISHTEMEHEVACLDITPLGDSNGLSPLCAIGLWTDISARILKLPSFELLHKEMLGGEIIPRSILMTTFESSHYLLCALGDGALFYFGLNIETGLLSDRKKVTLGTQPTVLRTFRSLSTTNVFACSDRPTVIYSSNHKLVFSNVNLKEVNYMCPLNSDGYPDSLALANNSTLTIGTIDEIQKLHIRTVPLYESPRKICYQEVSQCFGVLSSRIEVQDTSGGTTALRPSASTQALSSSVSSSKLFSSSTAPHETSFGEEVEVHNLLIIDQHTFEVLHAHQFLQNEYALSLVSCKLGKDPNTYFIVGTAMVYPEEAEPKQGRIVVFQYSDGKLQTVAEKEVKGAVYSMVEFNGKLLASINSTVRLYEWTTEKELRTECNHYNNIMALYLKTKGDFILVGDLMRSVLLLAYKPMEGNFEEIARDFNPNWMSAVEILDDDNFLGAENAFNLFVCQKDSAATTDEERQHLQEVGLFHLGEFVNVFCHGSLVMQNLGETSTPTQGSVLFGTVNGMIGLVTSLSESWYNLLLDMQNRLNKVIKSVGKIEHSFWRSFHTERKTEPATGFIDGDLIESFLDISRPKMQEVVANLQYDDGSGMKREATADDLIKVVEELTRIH
Description: In addition to cultured cells, athymic nude mice bearing KM12 subcutaneous xenograft tumors at the right flank were intraperitoneally treated with 10, 20, or 50 mg/kg CPD-053, CPD-027, or CPD-060. Four hours after drug administration, animals were sacrificed for immunoblotting of TPM3-TPKA in homogenized xenograft tumor masses. The label “a” or “b” represents two different samples of the same xenograft tumor.
Athymic nude mice bearing KM12 subcutaneous xenograft tumors at the right flank were intraperitoneally treated with 10, 20, or 50 mg/kg CPD-053, CPD-027, or CPD-060, as indicated in FIG. 3. Four hours after drug administration, animals were sacrificed for immunoblotting of TPM3-TPKA in homogenized xenograft tumor chunks. The label “a” or “b” represents two different chunks of the same xenograft tumor.
Athymic nude mice bearing KM12 subcutaneous xenograft tumors at the right flank were intraperitoneally or orally treated with bivalent compounds at indicated dose. Eight hours after drug administration, animals were sacrificed for immunoblotting of TPM3-TPKA in homogenized xenograft tumor samples.
(§1) Cultured cells were washed with cold PBS once and lysed in cold RIPA buffer supplemented with protease inhibitors and phosphatase inhibitors (Beyotime Biotechnology). The solutions were then incubated at 4° C. for 30 minutes with gentle agitation to fully lyse cells. For tumor tissues, tumors were cut into small pieces, milled with cold RIPA buffer using a mechanical homogenizer and lysed for 1 hour at 4° C. Cell lysates were centrifuged at 13,000 rpm for 10 minutes at 4° C. and pellets were discarded. Total protein concentrations in the lysates were determined by BCA assays (Beyotime Biotechnology). Cell lysates were mixed with Laemmli loading buffer to 1× and heated at 99° C. for 5 min. Proteins were resolved on SDS-PAGE and visualized by chemiluminescence. Images were taken by a ChemiDoc MP Imaging system (Bio-Rad). Protein bands were quantitated using the software provided by Bio-Rad.
All animal experiments were performed under protocols approved by the Institutional Animal Care and Use Committee (IACUC) of Cullgen. Athymic nude mice (male, 5-weeks old) received 5 million KM12 cells subcutaneously inoculated at the right flank site. Ten days following inoculation, tumors were approximately 500 mm3 in size. Tumor-bearing mice were treated intraperitoneally with vehicle or bivalent compounds at indicated doses. Tumor sizes and body weight of mice were measured every 2 days. In addition, immunoblotting assays were employed to assess the levels of TRKA fusion proteins in xenograft tumors around 500 mm^3 in size following drug administration. At indicated hours after drug administration, selected mice were sacrificed, tumors were resected. Small chunks of tumors were homogenized for immunoblotting of TPM3-TPKA and other proteins as indicated.

TPM3-TRKA fusion protein [2] = target: T1, TPM3-TRKA fusion protein; assay: Immunoblotting of TPM3-TRKA fusion protein in KM12 cells; assay type: cell-based; design: The resulted chimeric proteins always retain the kinase domain of TRK proteins; TPM3 (N-terminal fusion partner, natural gene fusion); endogenous in cells; host or cells: KM12 colon cancer cells; conditions: for TRKA protein levels: dose range (FIG. 8A)
Description: Specific exemplary bivalent compounds were characterized in KM12 cells. […] Cells were collected, lysed and subject to immunoblotting using an antibody specific to TRK proteins. GAPDH was included as the loading control. DMSO was used as the negative control.
KM12 cells were treated with DMSO or indicated compounds at 100 nM for 16 hours.
KM12 cells were treated with CPD-027, CPD-053, and CPD-060 at 100 nM for indicated incubation time. […]
(§2) KM12 or HEL cells were treated with a dose range of compound TR-123 or TR-123-negative. The latter lost binding to cereblon (CRBN) due to a chemical modification.
KM12 or HEL cells were treated with a single dose of compound TR-123 or combination with MG-132, Bortezomib, MLN4924 or Pomalidomide. […]
as §1

KM12 cells = assay: Cell viability assay (CellTiter-Glo) in KM12 cells; assay type: cell-based; conditions: Homo sapiens, 72 h, KM12 cell viability, CellTiter-Glo, 3 days, read-out: IC50
[3] = Mouse pharmacokinetic (PK) studies; assay type: in vivo; conditions: single 20 mg/kg intraperitoneal injection, mice, over 12 hours (FIG. 11); 20 mg/kg
Description: To investigate the pharmacokinetics of bi-functional compounds, exemplified by TR-123, a single 20 mg/kg intraperitoneal injection was evaluated. […] Additionally, doses of 2 mg/kg TR-198 via intravenous injection and 20 mg/kg TR-198 via oral gavage were evaluated in mice.
A single 20 mg/kg intraperitoneal injection of compound TR-123 was evaluated. Plasma concentrations of TR-123 reported at each of the 6 time points (30 min, 1 h, 2 h, 4 h, 8 h, and 12 h post compound administration) are the average values from 3 test animals.
A single 2 mg/kg intravenous injection and 20 mg/kg oral gavage of TR-198 were evaluated in mice.
Plasma concentrations of TR-198 reported at each of the 6 time points (5 min, 30 min, 2 h, 4 h, 8 h, and 12 h post compound administration via IV, 30 min, 1 h, 2 h, 4 h, 8 h, and 12 h post compound administration via p.o.) are the average values from 3 test animals.
Standard PK studies were conducted using male Swiss Albino mice by Sai Life Sciences. A single 20 mg/kg intraperitoneal (IP) injection of compound TR-123 was evaluated. Plasma concentrations of TR-123 reported at each of the 6 time points (30 min, 1 h, 2 h, 4 h, 8 h, and 12 h post dosing) are the average values from 3 test animals. Error bars represent+SD.

wild type TRKA protein = target: T2, wild type TRKA protein (Homo sapiens, UniProt P04629); assay: Immunoblotting of wild type TRKA protein in HEL cells; assay type: cell-based; conditions: for TRKA protein levels: dose range (FIG. 8B)
T2 construct: immunoblot of wild type TRKA protein expressed by HEL cells; endogenous in cells; host or cells: HEL cells
T2 sequence (P04629 33-796): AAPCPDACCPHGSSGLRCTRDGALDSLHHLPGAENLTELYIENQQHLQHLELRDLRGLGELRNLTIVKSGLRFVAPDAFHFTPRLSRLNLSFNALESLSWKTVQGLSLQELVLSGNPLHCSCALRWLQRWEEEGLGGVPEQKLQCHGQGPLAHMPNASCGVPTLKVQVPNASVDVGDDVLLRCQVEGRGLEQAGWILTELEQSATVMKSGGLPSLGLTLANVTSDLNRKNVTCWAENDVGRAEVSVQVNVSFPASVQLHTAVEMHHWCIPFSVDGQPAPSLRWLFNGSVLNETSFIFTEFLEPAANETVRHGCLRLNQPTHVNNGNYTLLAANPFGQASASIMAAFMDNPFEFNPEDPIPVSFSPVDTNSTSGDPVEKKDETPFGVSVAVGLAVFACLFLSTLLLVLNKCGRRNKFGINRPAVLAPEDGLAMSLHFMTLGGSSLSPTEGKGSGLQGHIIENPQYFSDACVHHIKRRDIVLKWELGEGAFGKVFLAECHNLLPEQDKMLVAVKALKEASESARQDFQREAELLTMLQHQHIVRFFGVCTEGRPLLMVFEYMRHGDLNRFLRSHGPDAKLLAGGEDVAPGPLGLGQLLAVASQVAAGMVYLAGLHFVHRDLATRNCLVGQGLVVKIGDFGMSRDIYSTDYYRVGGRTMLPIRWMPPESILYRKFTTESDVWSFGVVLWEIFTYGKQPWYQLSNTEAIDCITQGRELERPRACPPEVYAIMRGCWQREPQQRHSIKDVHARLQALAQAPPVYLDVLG
Description: as §2
KM12 or HEL cells were treated with a single dose of compound TR-123 or combination with MG-132, Bortezomib, MLN4924 or Pomalidomide.
as §1

In the case of `O=C1CCC(N2C(=O)c3cccc(NCCOCCC(=O)N4CCN(c5cccc(-c6cnc7ccc(N8CCC[C@@H]8c8cccc(F)c8)nn67)n5)CC4)c3C2=O)C(=O)N1` (stereo partly drawn) [CPD-027, 2-(2,6-Dioxopiperidin-3-yl)-4-((2-(3-(4-(6-(6-((R)-2-(3-fluorophenyl)pyrrolidin-1-yl)imidazo[1,2-b]pyridazin-3-yl)pyridin-2-yl)piperazin-1-yl)-3-oxopropoxy)ethyl)amino)isoindoline-1,3-dione], the “TPM3-TRKA protein levels in KM12 subcutaneous xenograft tumors” value (TPM3-TRKA fusion protein [1]; 10, 20, or 50 mg/kg intraperitoneally, single dose, four hours after administration (FIG. 3)) is reported as “significantly reducing TPM3-TRKA protein levels”, the “time after adding compound at which significant degradation of TPM3-TRKA was detected” value (TPM3-TRKA fusion protein [2]; 100 nM (FIG. 2)) is reported as 15 min and the TPM3-TRKA protein levels (TPM3-TRKA fusion protein [2]; 100 nM, 16 hours (FIG. 1A-1C)) is reported as “particularly effective in reducing TPM3-TRKA protein levels”. For the same molecule, the “TPM3-TRKA protein levels, time course” value (TPM3-TRKA fusion protein [2]; 100 nM, indicated incubation time (FIG. 2)) was “rapidly reduced TPM3-TRKA protein levels” and the IC50 (KM12 cells; Table 2) was 4.9 nM.

In the case of `O=C1CCC(N2C(=O)c3ccc(NCC(=O)N4CCN(c5cccc(-c6cnc7ccc(N8CCC[C@@H]8c8cccc(F)c8)nn67)n5)CC4)cc3C2=O)C(=O)N1` (some centres unmarked) [TR123], the plasma exposure [3] is reported as “good plasma exposure”.

In the case of `O=C1CCC(N2C(=O)c3ccc(NCC(=O)N4CCN(c5cccc(-c6cnc7ccc(N8CCC[C@@H]8c8cccc(F)c8)nn67)n5)CC4)cc3C2=O)C(=O)N1` (stereo partly drawn) [TR-123, 2-(2,6-dioxopiperidin-3-yl)-5-((2-(4-(6-(6-((R)-2-(3-fluorophenyl)pyrrolidin-1-yl)imidazo[1,2-b]pyridazin-3-yl)pyridin-2-yl)piperazin-1-yl)-2-oxoethyl)amino)isoindoline-1,3-dione], the “TPM3-TRKA degradation in KM12 subcutaneous tumors” value (from here on “TPM3-TRKA degradation”) (TPM3-TRKA fusion protein [1]) is reported as “exhibited the activities to induce TPM3-TRKA degradation”, the plasma exposure [3] is reported as “significant plasma exposure” and the TRKA protein levels (wild type TRKA protein) is reported as “reduced TRKA protein levels in a concentration-dependent manner; also recorded: significant degradation of full-length TRKA”. For the same molecule, the “TRKA degradation in combination with MG-132, Bortezomib, MLN4924 or Pomalidomide” value (wild type TRKA protein; single dose (FIG. 9B)) was “compromised”, the TRKA protein levels (TPM3-TRKA fusion protein [2]) was “reduced TRKA protein levels in a concentration-dependent manner” and the “TRKA degradation in combination with MG-132, Bortezomib or MLN4924” value (TPM3-TRKA fusion protein [2]; single dose (FIG. 9A)) was “compromised”. For the same molecule, the IC50 (KM12 cells; Table 3) was 1.7 nM.

With `CN1C(=O)CCC(N2C(=O)c3ccc(NCC(=O)N4CCN(c5cccc(-c6cnc7ccc(N8CCC[C@@H]8c8cccc(F)c8)nn67)n5)CC4)cc3C2=O)C1=O` (stereo partly drawn) [TR-123-negative, 5-((2-(4-(6-(6-((R)-2-(3-Fluorophenyl)pyrrolidin-1-yl)imidazo[1,2-b]pyridazin-3-yl)pyridin-2-yl)piperazin-1-yl)-2-oxoethyl)amino)-2-(1-methyl-2,6-dioxopiperidin-3-yl)isoindoline-1,3-dione] the TRKA protein levels (wild type TRKA protein) was “none or less effects on TRKA protein levels” and the TRKA protein levels (TPM3-TRKA fusion protein [2]) was “none or less effects on TRKA protein levels”.

For `O=C1CCC(N2C(=O)c3ccc(NCCCN4CCN(c5cccc(-c6cnc7ccc(N8CCC[C@@H]8c8cccc(F)c8)nn67)n5)CC4)cc3C2=O)C(=O)N1` (stereo partly drawn) [TR-171, 2-(2,6-Dioxopiperidin-3-yl)-5-((3-(4-(6-(6-((R)-2-(3-fluorophenyl)pyrrolidin-1-yl)imidazo[1,2-b]pyridazin-3-yl)pyridin-2-yl)piperazin-1-yl)propyl)amino)isoindoline-1,3-dione], the “TPM3-TRKA degradation” value (TPM3-TRKA fusion protein [1]) was “exhibited the activities to induce TPM3-TRKA degradation” and the IC50 (KM12 cells; Table 3) was 5.2 nM.

For `O=C1CCC(N2C(=O)c3ccc(CCCN4CCN(c5cccc(-c6cnc7ccc(N8CCC[C@@H]8c8cccc(F)c8)nn67)n5)CC4)cc3C2=O)C(=O)N1` (stereo partly drawn) [TR-172, 2-(2,6-dioxopiperidin-3-yl)-5-(3-(4-(6-(6-((R)-2-(3-fluorophenyl)pyrrolidin-1-yl)imidazo[1,2-b]pyridazin-3-yl)pyridin-2-yl)piperazin-1-yl)propyl)isoindoline-1,3-dione], the “TPM3-TRKA degradation” value (TPM3-TRKA fusion protein [1]) was “exhibited the activities to induce TPM3-TRKA degradation” and the IC50 (KM12 cells; Table 3) was 2 nM.

For `O=C1CCC(N2C(=O)c3ccc(OCCN4CCN(c5cccc(-c6cnc7ccc(N8CCC[C@@H]8c8cccc(F)c8)nn67)n5)CC4)cc3C2=O)C(=O)N1` (stereo partly drawn) [TR-173, 2-(2,6-dioxopiperidin-3-yl)-5-(2-(4-(6-(6-((R)-2-(3-fluorophenyl)pyrrolidin-1-yl)imidazo[1,2-b]pyridazin-3-yl)pyridin-2-yl)piperazin-1-yl)ethoxy)isoindoline-1,3-dione], the “TPM3-TRKA degradation” value (TPM3-TRKA fusion protein [1]) was “exhibited the activities to induce TPM3-TRKA degradation” and the IC50 (KM12 cells; Table 3) was 8.9 nM.

In the case of `O=C1CCC(N2C(=O)c3ccc(NCCOCCOCCN4CCN(c5cccc(-c6cnc7ccc(N8CCC[C@H]8c8cccc(F)c8)nn67)n5)CC4)cc3C2=O)C(=O)N1` (stereo partly drawn) [TR-177, 2-(2,6-Dioxopiperidin-3-yl)-5-((2-(2-(2-(4-(6-(6-((S)-2-(3-fluorophenyl)pyrrolidin-1-yl)imidazo[1,2-b]pyridazin-3-yl)pyridin-2-yl)piperazin-1-yl)ethoxy)ethoxy)ethyl)amino)isoindoline-1,3-dione], the “TPM3-TRKA degradation” value (TPM3-TRKA fusion protein [1]) is reported as “exhibited the activities to induce TPM3-TRKA degradation” and the IC50 (KM12 cells; Table 3) is reported as 1.9 nM.
